Source: ChEMBL document CHEMBL3826929, “Discovery and Preclinical Evaluation of BMS-711939, an Oxybenzylglycine Based PPARα Selective Agonist” (ACS Med Chem Lett, 2016)

Key:
[1] = target: T1, Peroxisome proliferator-activated receptor alpha (Homo sapiens, UniProt Q07869); test: Agonist activity at Gal4-tagged human PPAR-alpha expressed in HEK cells by transactivation assay; assay type: cell-based, HEK293
T1 sequence (Q07869 whole entry): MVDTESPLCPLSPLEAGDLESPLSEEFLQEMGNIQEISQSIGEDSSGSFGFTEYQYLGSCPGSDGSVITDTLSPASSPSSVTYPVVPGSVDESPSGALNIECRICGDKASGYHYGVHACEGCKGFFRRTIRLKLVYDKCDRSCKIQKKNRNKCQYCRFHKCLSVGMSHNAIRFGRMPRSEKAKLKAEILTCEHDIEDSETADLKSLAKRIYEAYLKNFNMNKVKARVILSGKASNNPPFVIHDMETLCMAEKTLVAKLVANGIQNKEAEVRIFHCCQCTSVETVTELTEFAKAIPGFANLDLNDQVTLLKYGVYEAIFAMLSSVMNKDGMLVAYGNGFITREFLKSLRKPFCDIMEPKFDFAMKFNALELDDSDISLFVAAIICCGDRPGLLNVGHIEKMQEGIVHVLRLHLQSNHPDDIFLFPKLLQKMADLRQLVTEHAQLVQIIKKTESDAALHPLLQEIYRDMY

HEK293 = test: Selectivity ratio of EC50 for Gal4-tagged human PPAR-gamma expressed in HEK cells to EC50 for Gal4-tagged human PPAR-alpha expressed in HEK cells; assay type: cell-based
[2] = target: T2, Peroxisome proliferator-activated receptor alpha (Homo sapiens) (UniProt Q07869); test: Intrinsic activity at PPAR-alpha (unknown origin) relative to fenofibric acid
T2 sequence (whole entry): T1 sequence (Q07869 whole entry)

[3] = target: T3, Peroxisome proliferator-activated receptor gamma (Homo sapiens, UniProt P37231); test: Agonist activity at Gal4-tagged human PPAR-gamma expressed in HEK cells by transactivation assay; assay type: cell-based, HEK293
T3 sequence (P37231 whole entry): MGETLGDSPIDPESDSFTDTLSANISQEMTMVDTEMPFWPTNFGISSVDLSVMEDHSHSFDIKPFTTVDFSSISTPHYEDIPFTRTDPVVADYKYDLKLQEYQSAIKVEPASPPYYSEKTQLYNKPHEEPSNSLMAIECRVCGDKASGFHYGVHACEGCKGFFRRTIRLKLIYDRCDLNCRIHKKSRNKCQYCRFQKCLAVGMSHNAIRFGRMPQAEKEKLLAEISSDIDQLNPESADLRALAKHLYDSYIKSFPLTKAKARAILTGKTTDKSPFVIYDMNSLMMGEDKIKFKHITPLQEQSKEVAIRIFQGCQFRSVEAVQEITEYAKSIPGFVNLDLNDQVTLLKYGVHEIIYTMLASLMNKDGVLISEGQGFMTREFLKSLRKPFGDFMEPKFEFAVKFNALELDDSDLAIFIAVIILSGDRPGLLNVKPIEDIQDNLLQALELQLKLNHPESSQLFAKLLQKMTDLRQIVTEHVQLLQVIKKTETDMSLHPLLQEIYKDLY

[4] = target: T1, Peroxisome proliferator-activated receptor alpha; test: Binding affinity to human GST-tagged PPAR-alpha LBD expressed in Escherichia coli BL21 (DE3) PlysS after 30 mins in presence of fluorescein ligand FLA-A by fluorescence polarization assay
[5] = target: T3, Peroxisome proliferator-activated receptor gamma; test: Binding affinity to human GST-tagged PPAR-gamma LBD expressed in Escherichia coli BL21 after 30 mins in presence of fluorescein ligand FLA-A by fluorescence polarization assay
Syrian golden hamster [6] = test: Decrease in plasma LDL cholesterol level in high fat-diet fed syrian golden hamster model of dyslipidemia at 10 mg/kg administered qd through oral gavage measured after 21 days by FPLC analysis relative to control; assay type: functional, Mesocricetus auratus; design: scale not given: the % may be the effect or the level left
Syrian golden hamster [7] = test: Decrease in plasma LDL cholesterol level in high fat-diet fed syrian golden hamster model of dyslipidemia administered qd through oral gavage measured after 21 days by FPLC analysis relative to control; assay type: functional, organism-based; conditions: Mesocricetus auratus
Syrian golden hamster [8] = test: Decrease in plasma triglyceride level in high fat-diet fed syrian golden hamster model of dyslipidemia at 3 mg/kg administered qd through oral gavage measured after 21 days by FPLC analysis relative to control; assay type: functional, Mesocricetus auratus; design: scale not given: the % may be the effect or the level left
Syrian golden hamster [9] = test: Decrease in liver cholesterol level in high fat-diet fed syrian golden hamster model of dyslipidemia at 3 mg/kg administered qd through oral gavage measured after 21 days by FPLC analysis relative to control; assay type: functional, Mesocricetus auratus; design: scale not given: the % may be the effect or the level left
Syrian golden hamster [10] = test: Decrease in plasma triglyceride level in high fat-diet fed syrian golden hamster model of dyslipidemia at 10 mg/kg administered qd through oral gavage measured after 21 days by FPLC analysis relative to control; assay type: functional, Mesocricetus auratus; design: scale not given: the % may be the effect or the level left
Syrian golden hamster [11] = test: Decrease in liver triglyceride level in high fat-diet fed syrian golden hamster model of dyslipidemia administered qd through oral gavage measured after 21 days by FPLC analysis; assay type: functional, organism-based; conditions: Mesocricetus auratus
Syrian golden hamster [12] = test: Decrease in liver cholesterol level in high fat-diet fed syrian golden hamster model of dyslipidemia at 1 mg/kg administered qd through oral gavage measured after 21 days by FPLC analysis relative to control; assay type: functional, Mesocricetus auratus; design: scale not given: the % may be the effect or the level left
Syrian golden hamster [13] = test: Decrease in liver cholesterol level in high fat-diet fed syrian golden hamster model of dyslipidemia at 10 mg/kg administered qd through oral gavage measured after 21 days by FPLC analysis relative to control; assay type: functional, Mesocricetus auratus; design: scale not given: the % may be the effect or the level left
Syrian golden hamster [14] = test: Decrease in plasma triglyceride level in high fat-diet fed syrian golden hamster model of dyslipidemia at 1 mg/kg administered qd through oral gavage measured after 21 days by FPLC analysis relative to control; assay type: functional, Mesocricetus auratus; design: scale not given: the % may be the effect or the level left
Syrian golden hamster [15] = test: Increase in liver cholesterol level in high fat-diet fed syrian golden hamster model of dyslipidemia at 1 mg/kg administered qd through oral gavage measured after 21 days by FPLC analysis relative to control; assay type: functional, Mesocricetus auratus
Syrian golden hamster [16] = test: Decrease in liver triglyceride level in high fat-diet fed syrian golden hamster model of dyslipidemia at 10 mg/kg administered qd through oral gavage measured after 21 days by FPLC analysis relative to control; assay type: functional, Mesocricetus auratus; design: scale not given: the % may be the effect or the level left
Syrian golden hamster [17] = test: Effect on plasma LDL cholesterol level in high fat-diet fed syrian golden hamster model of dyslipidemia at 1 mg/kg administered qd through oral gavage measured after 21 days by FPLC analysis (reference value: 91.7 +/- 8.1 mg/dl); assay type: functional, Mesocricetus auratus
Syrian golden hamster [18] = test: Decrease in liver triglyceride level in high fat-diet fed syrian golden hamster model of dyslipidemia at 3 mg/kg administered qd through oral gavage measured after 21 days by FPLC analysis relative to control; assay type: functional, Mesocricetus auratus; design: scale not given: the % may be the effect or the level left
Syrian golden hamster [19] = test: Decrease in plasma LDL cholesterol level in high fat-diet fed syrian golden hamster model of dyslipidemia at 3 mg/kg administered qd through oral gavage measured after 21 days by FPLC analysis relative to control; assay type: functional, Mesocricetus auratus; design: scale not given: the % may be the effect or the level left
Syrian golden hamster [20] = test: Decrease in liver triglyceride level in high fat-diet fed syrian golden hamster model of dyslipidemia at 1 mg/kg administered qd through oral gavage measured after 21 days by FPLC analysis relative to control; assay type: functional, Mesocricetus auratus; design: scale not given: the % may be the effect or the level left
Mus musculus [21] = test: Increase in ApoA1 level in transgenic mouse expressing human ApoA1 at 100 mg/kg administered qd through oral gavage measured after 10 days relative to vehicle-treated control; assay type: functional
Mus musculus [22] = test: Increase in HDL cholesterol level in transgenic mouse expressing human ApoA1 at 100 mg/kg administered qd through oral gavage measured after 10 days relative to vehicle control; assay type: functional
Mus musculus [23] = test: Decrease in triglyceride level in transgenic mouse expressing human ApoA1 at 100 mg/kg administered qd through oral gavage measured after 10 days relative to vehicle control; assay type: functional; design: scale not given: the % may be the effect or the level left

| SMILES | EC50 [1] [nM] | Ratio EC50 (HEK293) | Intrinsic activity [2] [%] | EC50 [3] [nM] | also measured |
| --- | --- | --- | --- | --- | --- |
| COC(=O)N(CC(=O)O)Cc1cc(OCc2nc(-c3ccc(C(F)(F)F)cc3)oc2C)ccc1F | 3.6 | 566 | > 50 | 2060 | – |
| COC(=O)N(CC(=O)O)Cc1cc(F)cc(OCc2nc(-c3ccc(Cl)cc3)oc2C)c1 | 18 | 157 | > 50 | 2820 | IC50 [4]: 1340 nM; IC50 [5]: > 15000 nM |
| COC(=O)N(CC(=O)O)Cc1cc(OCc2nc(-c3ccccc3)oc2C)ccc1F | 59 | 146 | > 50 | 8610 | – |
| COC(=O)N(CC(=O)O)[C@@H](C)c1cccc(OCc2nc(-c3ccc(Cl)cc3)oc2C)c1 | 8.6 | 332 | > 50 | 2860 | IC50 [4]: 671 nM; IC50 [5]: > 15000 nM |
| COC(=O)N(CC(=O)O)Cc1cccc(OCc2nc(-c3ccc(Cl)cc3)oc2C)c1 | – | – | – | – | Activity (Syrian golden hamster [6]): 60%; Activity (Syrian golden hamster [7]): Dose-dependent effect; Activity (Syrian golden hamster [8]): 45%; Activity (Syrian golden hamster [9]): 15.4%; Activity (Syrian golden hamster [10]): 77%; Activity (Syrian golden hamster [11]): Dose-dependent effect; Activity (Syrian golden hamster [12]): -22%; Activity (Syrian golden hamster [13]): 40.8%; Activity (Syrian golden hamster [14]): 40%; Activity (Syrian golden hamster [15]): 22%; Activity (Syrian golden hamster [16]): 23%; Activity (Syrian golden hamster [17]): 89.3 mg/dL; Activity (Syrian golden hamster [18]): 17%; Activity (Syrian golden hamster [19]): 46%; Activity (Syrian golden hamster [20]): 6% |
| Cc1oc(-c2ccc(Cl)cc2)nc1COc1ccc(F)c(CN(CC(=O)O)C(=O)OCCCF)c1 | 10.6 | 413 | > 50 | 4380 | – |
| COC(=O)N(CC(=O)O)Cc1cc(OCc2nc(-c3ccc(S(C)(=O)=O)cc3)oc2C)ccc1F | > 2500 | – | > 50 | > 25000 | – |
| Cc1oc(-c2ccc(Cl)cc2)nc1COc1ccc(F)c(CN(CC(=O)O)C(=O)OCC(C)C)c1 | 2.3 | 666 | > 50 | 1500 | – |
| COC(=O)N(CC(=O)O)Cc1ccc(F)c(OCc2nc(-c3ccc(Cl)cc3)oc2C)c1 | 94 | 98 | > 50 | 9170 | IC50 [4]: 1560 nM; IC50 [5]: > 15000 nM |
| CC(C)OC(=O)C(C)(C)Oc1ccc(C(=O)c2ccc(Cl)cc2)cc1 [FENOFIBRATE] | – | – | – | – | Activity (Mus musculus [21]): 665%; Activity (Mus musculus [22]): 88%; Activity (Mus musculus [23]): 32.5% |
| COC(=O)N(CC(=O)O)Cc1cc(OCc2nc(-c3ccc(OC(F)(F)F)cc3)oc2C)ccc1F | 4.3 | 556 | > 50 | 2380 | – |
| CCCCOC(=O)N(CC(=O)O)Cc1cc(OCc2nc(-c3ccc(Cl)cc3)oc2C)ccc1F | 2.8 | 435 | > 50 | 1240 | – |
| Cc1ccc(OC(=O)N(CC(=O)O)Cc2cc(OCc3nc(-c4ccc(Cl)cc4)oc3C)ccc2F)cc1 | 5.6 | 224 | > 50 | 1260 | – |
| COC(=O)N(CC(=O)O)Cc1cc(OCc2nc(-c3ccc(C)cc3)oc2C)ccc1F | 2.8 | 787 | > 50 | 2180 | – |
| COC(=O)N(CC(=O)O)Cc1cc(OCc2nc(-c3ccc(C(C)(C)C)cc3)oc2C)ccc1F | 2.7 | 154 | > 50 | 414 | – |
| COC(=O)N(CC(=O)O)Cc1cc(OCc2nc(-c3ccc(F)cc3)oc2C)ccc1F | 14.5 | 691 | > 50 | 10000 | – |
| CCOC(=O)N(CC(=O)O)Cc1cc(OCc2nc(-c3ccc(Cl)cc3)oc2C)ccc1F | 4 | 1080 | > 50 | 4270 | – |
| CCCOC(=O)N(CC(=O)O)Cc1cc(OCc2nc(-c3ccc(Cl)cc3)oc2C)ccc1F | 3.4 | 594 | > 50 | 2010 | – |
| COc1ccc(OC(=O)N(CC(=O)O)Cc2cc(OCc3nc(-c4ccc(Cl)cc4)oc3C)ccc2F)cc1 | 6.8 | 160 | > 50 | 1090 | – |
